Patent publication US12473295B2, “Substituted straight chain spiro derivatives” (Janssen Pharmaceutica NV, priority 2019, dated 2025)
Counter-ions that a name gives are not always drawn. Like-named read-outs stand apart in the source and are kept apart here.

Assays:
[1] = system: KO-52 cells; assay: Proliferation assay (spheroid growth, 8 days), KO-52 control cell line; assay type: cell-based, human; conditions: read-out: spheroid assay_OneTime KO-52 IC50
Summary of the method: (§1)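 Spheroid size on day 8, taken as live-cell imaging confluence, served as readout after 8-day compound exposure (0.3% DMSO, 37 °C, 5% CO2) in round-bottom low-attachment wells. Seeding was 200 cells for MOLM14 and OCI-AML3, 300 for KO-52. IC50 came from % effect versus DMSO and reference baseline, fitted with variable slope.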

[2] = system: MEIS1 mRNA; assay: MEIS1 mRNA expression assay (Quantigene Singleplex) in MOLM14 cells; assay type: cell-based, human; conditions: 48 hours incubation;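 note: MEIS1 transcript levels read by probe hybridization and normalized to RPL28 mRNA, with IC50 fitted to fold changes across a rising compound concentration series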
[3] = system: OCI-AML3 cells; assay: Proliferation assay (spheroid growth, 8 days), OCI-AML3; assay type: cell-based, human; conditions: OCI-AML3, 8 days
Summary of the method: as §1

[4] = system: MOLM14 cells; assay: Proliferation assay (spheroid growth, 8 days), MOLM14; assay type: cell-based, human; conditions: MOLM14, 8 days, read-out: spheroid assay_OneTime MOLM14 IC50;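 note: spheroid size read as confluence by live-cell imaging, compounds added at a range of concentrations with 0.3% DMSO, DMSO-treated wells = 0%, highest reference dose = low control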
[5] = biological target: menin/MLL (terbium chelate-labeled menin, FITC-MBM1 peptide) (Homo sapiens (Human), UniProt O00255); assay: Menin/MLL homogenous time-resolved fluorescence (HTRF) assay; assay type: binding;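 note: IC50 from percent inhibition of HTRF signal, normalized between wells without competitor and wells with a saturating competitor that displaces FITC-MBM1 from His-tagged menin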
Sequence of menin/MLL (terbium chelate-labeled menin, FITC-MBM1 peptide) (O00255 other isoform, or with tags, fused parts or gaps): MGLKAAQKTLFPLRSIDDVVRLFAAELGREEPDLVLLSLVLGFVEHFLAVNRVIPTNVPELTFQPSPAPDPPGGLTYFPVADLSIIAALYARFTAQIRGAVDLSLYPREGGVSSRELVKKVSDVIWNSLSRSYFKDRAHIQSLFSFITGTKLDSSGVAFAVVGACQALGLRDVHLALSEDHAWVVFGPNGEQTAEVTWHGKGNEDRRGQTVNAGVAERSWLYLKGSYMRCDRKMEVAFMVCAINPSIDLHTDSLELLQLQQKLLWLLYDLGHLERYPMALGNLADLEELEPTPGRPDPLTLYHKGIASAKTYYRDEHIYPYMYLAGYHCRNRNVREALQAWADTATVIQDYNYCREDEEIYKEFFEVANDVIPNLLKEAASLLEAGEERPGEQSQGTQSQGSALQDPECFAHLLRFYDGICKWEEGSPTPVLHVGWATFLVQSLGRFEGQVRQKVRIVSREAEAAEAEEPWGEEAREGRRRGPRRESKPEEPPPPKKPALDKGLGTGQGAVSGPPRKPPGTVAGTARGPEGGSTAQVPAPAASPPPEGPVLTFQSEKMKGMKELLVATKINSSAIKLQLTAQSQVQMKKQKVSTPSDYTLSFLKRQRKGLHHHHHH

[6] = HTRF-30 min incubation IC50, 30 min incubation

| SMILES | IC50 ([2]; Homo sapiens, MOLM-14, 48 h) | IC50 ([3]; Homo sapiens, OCI-AML-3, […]) | IC50 ([4]; Homo sapiens, MOLM-14, […]) | IC50 [5, 6] | IC50 [2] | IC50 [3] | IC50 [4] | IC50 ([5]; read-out: HTRF-30 min incubation IC50, 30 min incubation) | IC50 ([1]; Homo sapiens, […]) | IC50 [1] |
| --- | --- | --- | --- | --- | --- | --- | --- | --- | --- | --- |
| CCN(C(=O)c1cc(F)ccc1Oc1nncnc1N1CCC2(C1)CN([C@H](CCCNC[C@@H](O)COC)C(C)C)C2)C(C)C [Compound 281, N-ethyl-5-fluoro-2-((5-(2-((R)-6-(((R)-2-hydroxy-3-methoxypropyl)amino)-2-methylhexan-3-yl)-2,6-diazaspiro[3.4]octan-6-yl)-1,2,4-triazin-6-yl)oxy)-N-isopropylbenzamide formate] | 38 nM | 90 nM | 48 nM | 0.24 nM | – | – | – | – | > 15000 nM | – |
| CCN(C(=O)c1cc(F)ccc1Oc1nncnc1N1CCC2(C1)CN([C@H](CCCN(C)C(C)CC(=O)N(C)C)C(C)C)C2)C(C)C (stereo partly shown) [Compound 179, fumarate] | 27 nM | 59 nM | 33 nM | 0.13 nM | – | – | – | – | > 15000 nM | – |
| CCN(C(=O)c1cc(F)ccc1Oc1nncnc1N1CCC2(C1)CN([C@H](CCCN(C)CC(C)(C)OC)C(C)C)C2)C(C)C [Compound 137, (R)-N-ethyl-5-fluoro-N-isopropyl-2-((5-(2-(6-((2-methoxy-2-methylpropyl)(methyl)amino)-2-methylhexan-3-yl)-2,6-diazaspiro[3.4]octan-6-yl)-1,2,4-triazin-6-yl)oxy)benzamide fumarate] | 25 nM | 160 nM | 45 nM | 0.18 nM | – | – | – | – | 7290 nM | – |
| CCN(C(=O)c1cc(F)ccc1Oc1nnccc1N1CCC2(C1)CN([C@@H](CCCN(C)C)C(C)C)C2)C(C)C (single isomer, unassigned) [Compound 78, (*S)-2-((4-(2-(6-(dimethylamino)-2-methylhexan-3-yl)-2,6-diazaspiro[3.4]octan-6-yl)pyridazin-3-yl)oxy)-N-ethyl-5-fluoro-N-isopropylbenzamide] | – | – | – | – | > 1000 nM | 12200 nM | > 940 nM | 3.69 nM | – | > 15000 nM |
| CCN(C(=O)c1cc(F)ccc1Oc1nncnc1N1CCC2(C1)CN([C@H](CCCNCC(F)F)C(C)C)C2)C(C)C [Compound 15, (R)-2-((5-(2-(6-((2,2-difluoroethyl)amino)-2-methylhexan-3-yl)-2,6-diazaspiro[3.4]octan-6-yl)-1,2,4-triazin-6-yl)oxy)-N-ethyl-5-fluoro-N-isopropylbenzamide] | 71 nM | 460 nM | 100 nM | 0.25 nM | – | – | – | – | 3700 nM | – |
| CCN(C(=O)c1cc(F)ccc1Oc1nncnc1N1CCC2(C1)CN([C@H](C[C@@H](CN(C)C)OC)C(C)C)C2)C(C)C (single isomer, unassigned) [Compound 315, 2-((5-(2-((3*R,5*S)-6-(dimethylamino)-5-methoxy-2-methylhexan-3-yl)-2,6-diazaspiro[3.4]octan-6-yl)-1,2,4-triazin-6-yl)oxy)-N-ethyl-5-fluoro-N-isopropylbenzamide fumarate] | ~330 nM | 1090 nM | 290 nM | 0.51 nM | – | – | – | – | > 15000 nM | – |
| CCN(C(=O)c1cc(F)ccc1Oc1nncnc1N1CCC2(C1)CN([C@H](CCCN[C@H](CO)COC)C(C)C)C2)C(C)C [Compound 162, N-ethyl-5-fluoro-2-((5-(2-((R)-6-(((R)-1-hydroxy-3-methoxypropan-2-yl)amino)-2-methylhexan-3-yl)-2,6-diazaspiro[3.4]octan-6-yl)-1,2,4-triazin-6-yl)oxy)-N-isopropylbenzamide] | ~19 nM | 26 nM | 13 nM | 0.096 nM | – | – | – | – | > 15000 nM | – |
| CCN(C)C[C@@H](O)C[C@H](C(C)C)N1CC2(CCN(c3ncnnc3Oc3ccc(F)cc3C(=O)N(CC)C(C)C)C2)C1 (single isomer, unassigned) [Compound 342, N-ethyl-2-((5-(2-((3*S,5S)-6-(ethyl(methyl)amino)-5-hydroxy-2-methylhexan-3-yl)-2,6-diazaspiro[3.4]octan-6-yl)-1,2,4-triazin-6-yl)oxy)-5-fluoro-N-isopropylbenzamide fumarate] | 78 nM | 25 nM | 10 nM | 0.17 nM | – | – | – | – | 23 nM | – |
| CCN(CC)C[C@H](O)C[C@@H](C(C)C)N1CC2(CCN(c3ncnnc3Oc3ccc(F)cc3C(=O)N(CC)C(C)C)C2)C1 (single isomer, unassigned) [Compound 336, 2-((5-(2-((3*S,5*R)-6-(diethylamino)-5-hydroxy-2-methylhexan-3-yl)-2,6-diazaspiro[3.4]octan-6-yl)-1,2,4-triazin-6-yl)oxy)-N-ethyl-5-fluoro-N-isopropylbenzamide fumarate] | 61 nM | 870 nM | 70 nM | 0.21 nM | – | – | – | – | > 15000 nM | – |
| CCN(C(=O)c1cc(F)ccc1Oc1nncnc1N1CCC2(C1)CN([C@H](CCCN(C)[C@@H](C)CC(=O)N(C)C)C(C)C)C2)C(C)C (single isomer, unassigned) [Compound 185, 2-((5-(2-((R)-6-(((*S)-4-(dimethylamino)-4-oxobutan-2-yl)(methyl)amino)-2-methylhexan-3-yl)-2,6-diazaspiro[3.4]octan-6-yl)-1,2,4-triazin-6-yl)oxy)-N-ethyl-5-fluoro-N-isopropylbenzamide fumarate] | 44 nM | 61 nM | 79 nM | 0.2 nM | – | – | – | – | 1700 nM | – |
| CC(C)[C@@H](CCCN(C)[C@@H](C)CC(N)=O)N1CC2(CCN(c3ncnnc3Oc3ccc(F)cc3C(=O)N(C(C)C)C(C)C)C2)C1 (single isomer, unassigned) [Compound 201, 2-((5-(2-((*R)-6-(((S)-4-amino-4-oxobutan-2-yl)(methyl)amino)-2-methylhexan-3-yl)-2,6-diazaspiro[3.4]octan-6-yl)-1,2,4-triazin-6-yl)oxy)-5-fluoro-N,N-diisopropylbenzamide fumarate] | 52 nM | 65 nM | 40 nM | 0.13 nM | – | – | – | – | > 15000 nM | – |
| CCN(C)C[C@@H](O)C[C@H](C(C)C)N1CC2(CCN(c3ncnnc3Oc3ccc(F)cc3C(=O)N(C(C)C)C(C)C)C2)C1 (single isomer, unassigned) [Compound 391, 2-((5-(2-((3*R,5*S)-6-(ethyl(methyl)amino)-5-hydroxy-2-methylhexan-3-yl)-2,6-diazaspiro[3.4]octan-6-yl)-1,2,4-triazin-6-yl)oxy)-5-fluoro-N,N-diisopropylbenzamide fumarate] | 160 nM | 2100 nM | 490 nM | 0.9 nM | – | – | – | – | > 15000 nM | – |

More lines, main results first:

| IC50 ([2]; Homo sapiens, MOLM-14, 48 h) | IC50 ([3]; Homo sapiens, OCI-AML-3, […]) | IC50 ([4]; Homo sapiens, MOLM-14, […]) | IC50 [5, 6] | IC50 [2] | IC50 [3] | IC50 [4] | IC50 ([5]; read-out: HTRF-30 min incubation IC50, 30 min incubation) | SMILES | IC50 ([1]; Homo sapiens, […]) | IC50 [1] |
| --- | --- | --- | --- | --- | --- | --- | --- | --- | --- | --- |
| 340 nM | 530 nM | 200 nM | 0.29 nM | – | – | – | – | CCN(C(=O)c1cc(F)ccc1Oc1nncnc1N1CCC2(C1)CN([C@H](CCNCCO)C(C)C)C2)C(C)C (single isomer, unassigned) [Compound 268, (*R)—N-ethyl-5-fluoro-2-((5-(2-(1-((2-hydroxyethyl)amino)-4-methylpentan-3-yl)-2,6-diazaspiro[3.4]octan-6-yl)-1,2,4-triazin-6-yl)oxy)-N-isopropylbenzamide fumarate] | > 15000 nM | – |
| 36 nM | 36 nM | 45 nM | 0.3 nM | – | – | – | – | CCN(C(=O)c1cc(F)ccc1Oc1nncnc1N1CCC2(C1)CN([C@H](CCCN(C)C[C@H](C)C(=O)NC)C(C)C)C2)C(C)C [Compound 197, N-ethyl-5-fluoro-N-isopropyl-2-((5-(2-((R)-2-methyl-6-(methyl((S)-2-methyl-3-(methylamino)-3-oxopropyl)amino)hexan-3-yl)-2,6-diazaspiro[3.4]octan-6-yl)-1,2,4-triazin-6-yl)oxy)benzamide fumarate] | > 15000 nM | – |
| 19 nM | 130 nM | 52 nM | 0.18 nM | – | – | – | – | CCN(C(=O)c1cc(F)ccc1Oc1nncnc1N1CCC2(C1)CN([C@H](CCCN(C)C[C@H](C)OC)C(C)C)C2)C(C)C (single isomer, unassigned) [Compound 251, N-ethyl-5-fluoro-N-isopropyl-2-((5-(2-((R)-6-(((*S)-2-methoxypropyl)(methyl)amino)-2-methylhexan-3-yl)-2,6-diazaspiro[3.4]octan-6-yl)-1,2,4-triazin-6-yl)oxy)benzamide oxalate] | 3900 nM | – |
| 130 nM | 240 nM | 270 nM | 0.27 nM | – | – | – | – | CCN(C(=O)c1cc(F)ccc1Oc1nncnc1N1CCC2(C1)CN([C@H](CCCCN)C(C)C)C2)C(C)C (single isomer, unassigned) [Compound 209, (*R)-2-((5-(2-(7-amino-2-methylheptan-3-yl)-2,6-diazaspiro[3.4]octan-6-yl)-1,2,4-triazin-6-yl)oxy)-N-ethyl-5-fluoro-N-isopropylbenzamide formate] | > 15000 nM | – |
| 1070 nM | 920 nM | 690 nM | 0.2 nM | – | – | – | – | CCN(C(=O)c1cc(F)ccc1Oc1nncnc1N1CCC2(C1)CN([C@H](CCN(C)CCC(N)=O)C(C)C)C2)C(C)C (single isomer, unassigned) [Compound 280, (*R)-2-((5-(2-(1-((3-amino-3-oxopropyl)(methyl)amino)-4-methylpentan-3-yl)-2,6-diazaspiro[3.4]octan-6-yl)-1,2,4-triazin-6-yl)oxy)-N-ethyl-5-fluoro-N-isopropylbenzamide fumarate] | > 15000 nM | – |
